Source: US20240318142A1, “METHOD FOR PRODUCING RENAL INTERSTITIAL PROGENITOR CELLS, ERYTHROPOIETIN-PRODUCING CELLS, AND METHOD FOR PRODUCING RENIN-PRODUCING CELLS” (KYOTO UNIVERSITY, priority 2021, published 2024)

Test system: PPS cells obtained by differentiation induction from human iPS cells
Assay: Induction of FOXD1-positive renal interstitial progenitor cells (IPC) from PPS cells, flow cytometric analysis (FOXD1 and OSR1) on Day 11
Type: cell-based
Settings: 5 days of treatment (Days 6 to 11) with the combination CHIR99021 1 μM, SB431542 10 μM and RA 100 nM; FIG. 3
Procedure: FIG. 3 is a diagram illustrating results of flow cytometric analysis (FOXD1 and OSR1), carried out on Day 11, of cells that were treated with various combinations of factors during the differentiation induction period of Days 6 to 11 (the period corresponding to “Screening” in FIG. 1). The following concentrations were employed: 1 μM CHIR99021 (CHIR), 10 μM SB431542 (SB), 100 nM retinoic acid (RA), 200 ng/mL FGF9, and 25 ng/mL Noggin.
FIG. 5 is a diagram illustrating results of flow cytometric analysis (FOXD1 and OSR1), carried out on Day 11, of cells that were treated or not treated with Smoothened Agonist (SAG) (concentration, 500 nM) during the differentiation induction period of Days 6 to 8. ** indicates p<0.01 (Student's t-test), and NS indicates “no significant difference”.
FIG. 6 is a diagram illustrating results of flow cytometric analysis (FOXD1 and OSR1), carried out on Day 11, of cells that were treated with various factors during the differentiation induction period of Days 6 to 8. The following concentrations were employed: 1 μM CHIR, 10% Wnt3a, 200 ng/mLRSPO1 (R-Spondin-1), 500 nM SAG, 10 ng/mL IL-1β, 50 ng/mL Estradiol, and 10 ng/mL TGFβ1.
Human iPS cells (hiPSCs) (17K6:OSR1-GFP/FOXD1-tdTomato double knock-in hiPSCs) were first subjected to enzyme treatment for 5 minutes using a 1:1 mixture of TrypLE Select Enzyme (Thermo Fisher Scientific) and 0.5 mM EDTA/PBS, and then washed with PBS(−). Thereafter, the cells were detached using a cell scraper, and then dissociated into single cells by gentle pipetting. One day before the start of differentiation, the cells were plated into a 24-well plate (CORNING) at a density of 1.3×10^4 cells/cm^2 together with 0.5 mL of Stem Fit AK02N (Ajinomoto Healthy Supply Co., Inc.) supplemented with 10 μM Y-27632 and 2.4 μL/mL iMatrix-511 (Matrixome). Twenty-four hours later (Day 0), 5 μM CHIR99021 (Wako), 10 nM RA (Sigma), 1 ng/mL BMP4 (Peprotech), and 100 ng/mL bFGF (Wako) were added to a serum-free differentiation medium comprising DMEM/F12 Glutamax (Thermo Fisher Scientific), B27 supplement minus vitamin A (Thermo Fisher Scientific), and 0.5× penicillin/streptomycin (hereinafter referred to as basal medium), and then culture was started. Twenty-four hours thereafter (Day 1), culture was performed with a basal medium supplemented with 5 μM CHIR99021, 100 ng/mL bFGF, and 1 ng/mL BMP7 (R&D Systems). On Day 2, the medium was switched to a basal medium supplemented with 5 μM CHIR99021, 1 ng/mL BMP7, and 10 μM A83-01 (Wako). On Day 3, the medium was switched to a basal medium supplemented with 5 μM CHIR99021, 30 ng/mL bFGF, 10 ng/mL activin A (R&D Systems), and 30 μM Y-27632 (Wako). On Day 4, the cells were washed with PBS(−), treated with Accumax (Innovative Cell Technologies), and then dissociated into single cells by gentle pipetting, followed by plating into a 24-well plate (CORNING) at a density of 1.05×10^5 cells/cm^2 (2D culture) or plating into a 96-well low-cell-adhesive plate (Thermo Fisher Scientific) at a density of 2.0×10^4 cells/cm^2 (3D culture). Culture was performed for 48 hours using a basal medium supplemented with 5 μM CHIR99021, 30 ng/mL bFGF, 10 ng/mL activin A, and 30 μM Y-27632 (in addition, 1.2 μL/well iMatrix-511 or a laminin-E8 fragment library in the case of 2D culture). By this, HOXC10- and CITED1-positive PPS cells were induced.
For the PPS cells on Day 6 of the culture protocol in FIG. 1, several differentiation induction conditions were tested by combining various factors. […]

NC(=O)c1ccc(-c2nc(-c3ccc4c(c3)OCO4)c(-c3ccccn3)[nH]2)cc1 [SB431542]
induction of FOXD1-positive cells: could be induced
